From publication PMC7766132, “N-Terminal Tagging with GFP Enhances Selectivity of Agitoxin 2 to Kv1.3-Channel Binding Site” (Toxins, 2020)

Tests used:
KcsA-Kv1.1 = assay: Competitive displacement of AgTx2-L3-GFP from KcsA-Kv1.1 on spheroplasts; assay type: binding; conditions: AgTx2-L3-GFP 20 nM; Figure 4
KcsA-Kv1.3 [1] = assay: Competitive displacement of His6-GFP-L2-AgTx2 from KcsA-Kv1.3 on spheroplasts; assay type: binding; conditions: for Kd: fluorescent ligand His6-GFP-L2-AgTx2 20 nM, 2 h, 37 °C, Kap = IC50/(1 + [L]/[Kd]), mean ± SEM, n = 3, read-out: Apparent dissociation constant Kap of peptide blocker – Kv1.3-binding site complexes; for Concentration range of competition with His6-GFP-L2-AgTx2 for KcsA-Kv1.3: titration, His6-GFP-L2-AgTx2 20 nM, Figure 3F
KcsA-Kv1.3 [2] = assay: Competitive displacement of AgTx2-L3-GFP from KcsA-Kv1.3 on spheroplasts; assay type: binding; conditions: AgTx2-L3-GFP 20 nM; Figure 4
Kv1.1 = conditions: cited from earlier work
Excerpt: (§1) AgTx2 was successfully used in the form of a fluorescently labeled peptide (either RFP-AgTx2, or AgTx2 chemically labeled with tetramethylrhodamine, R-AgTx2) to probe binding affinities of various peptide toxins to different Kv1 channels. Extending color variety of AgTx2-based FP-Tx, we report here on the design of GFP-tagged AgTx2. Ability of GFP-tagged AgTx2 to interact with the pore blocker bi ... || To clarify the structural basis of the advanced selectivity of GFP-L2-AgTx2, a homologous GFP-L1-AgTx2 ligand was produced, in which the 45-aminoacid L1 linker was used instead of the L2 linker (Figure 1A). […] Fusion of AgTx2 with GFP was performed using the 20-aa glycine-rich L3 linker, whose sequence was similar to the L2 linker.

Kv1.6 = conditions: cited from earlier work
Excerpt: as §1

KcsA-Kv1.6 = assay: Competitive displacement of AgTx2-L3-GFP from KcsA-Kv1.6 on spheroplasts; assay type: binding; conditions: AgTx2-L3-GFP 20 nM; Figure 4
KcsA-Kv1.3 [3] = assay: Competitive displacement of GFP-L2-AgTx2 from KcsA-Kv1.3 on spheroplasts; assay type: binding; conditions: for Displacement of GFP-L2-AgTx2 from complexes with KcsA-Kv1.3 (in words) / Concentration range of competition with GFP-L2-AgTx2 for KcsA-Kv1.3: GFP-L2-AgTx2 20 nM; for Displacement of GFP-L2-AgTx2 from complexes with KcsA-Kv1.3 (in words) / Kd: 2 h, 37 °C; for Displacement of GFP-L2-AgTx2 from complexes with KcsA-Kv1.3 (in words): Figure 2D; for Kd: fluorescent ligand GFP-L2-AgTx2 20 nM, Kap = IC50/(1 + [L]/[Kd]), mean ± SEM, n = 3, read-out: Apparent dissociation constant Kap of peptide blocker – Kv1.3-binding site complexes; for Concentration range of competition with GFP-L2-AgTx2 for KcsA-Kv1.3: titration, Figure 3E
mKate2-hKv1.3-del [4] = assay: Competitive displacement of GFP-L2-AgTx2 from mKate2-hKv1.3-del on HEK293 cells; assay type: cell-based, human; conditions: GFP-L2-AgTx2 40 nM, AgTx2 400 nM, 40 min
Excerpt: KCNA3 gene encoding human Kv1.3 (hKv1.3, Accession number NP_002223.3) was a generous gift from Dr. A. Vassilevski. The gene was amplified using primers KCNA3-del-f1 and KCNA3-r1 (Table 2) to obtain KCNA3-del gene encoding N-terminally truncated protein, in which residues M1 through D52 were deleted. The truncated gene was inserted into BglII/HindIII sites of pmKate2-C plasmid (Evrogen, Moscow, Russia) to obtain the resulting plasmid pmKate2-KCNA3-del, which was further used for transfection of HEK293T cells. In the hybrid protein, mKate2-hKv1.3-del, mKate2 was linked to the N-terminus of the hKv1.3-del channel through the 9-aa flexible linker. […]
HEK 293 cells (from the collection of the Institute of Cytology RAS) were grown (37 °C, 5% CO2) in DMEM/F12 (Paneco, Russia) containing 5% fetal bovine serum (FBS, HyClone, Utah, USA) and 2 mM L-glutamine. […] Competitive binding was assessed by incubating cells with GFP-L2-AgTx2 (40 nM) and AgTx2 (400 nM) for 40 min. […]
Experiments with HEK293 cells were performed with a laser scanning confocal microscope Leica-SP2 (Leica Microsystems GmbH, Wetzlar, Germany). […] Fluorescence of GFP-tagged AgTx2 was excited at the 488 nm wavelength and recorded in the 495–535 nm range. Fluorescence of mKate2-hKv1.3 was excited at the 561 nm wavelength and recorded in the 650–700 nm range.

Kv1.3 = conditions: cited from earlier work
Excerpt: AgTx2 was successfully used in the form of a fluorescently labeled peptide (either RFP-AgTx2, or AgTx2 chemically labeled with tetramethylrhodamine, R-AgTx2) to probe binding affinities of various peptide toxins to different Kv1 channels. Extending color variety of AgTx2-based FP-Tx, we report here on the design of GFP-tagged AgTx2. Ability of GFP-tagged AgTx2 to interact with the pore blocker bi ... || To verify specificity of GFP-L2-AgTx2 interaction with the Kv1.3 binding site on the surface of KcsA-Kv1.3-presenting spheroplasts, we have studied the effect of well-known potassium channel peptide blockers on this interaction (Figure 2D). […] Scillato ... || To clarify the structural basis of the advanced selectivity of GFP-L2-AgTx2, a homologous GFP-L1-AgTx2 ligand was produced, in which the 45-aminoacid L1 linker was used instead of the L2 linker (Figure 1A).

Kv1.2 = conditions: cited from earlier work
Excerpt: Several fluorescently labeled peptide toxins were produced by chemical synthesis using reactive fluorescent organic dyes. The procedures are usually laborious, and the yields of the labeled products are often low. As an alternative, genetically encoded fluorescent protein-scorpion toxin chimeras (FP-Tx), which are the polypeptide ligands of potassium voltage-gated Kv1-channels were recently developed. […] AgTx2 was successfully used in the form of a fluorescently labeled peptide (either RFP-AgTx2, or AgTx2 chemically labeled with tetramethylrhodamine, R-AgTx2) to probe binding affinities of various peptide toxins to different Kv1 channels. Extending color variety of AgTx2-based FP-Tx, we report here on the design of GFP-tagged AgTx2. Ability of GFP-tagged AgTx2 to interact with the pore blocker bi ...

KCa2.3 = conditions: known pharmacology, no reference given; cited from earlier work
mKate2-hKv1.3-del [5] = conditions: transient expression; cited from earlier work
Excerpt: In the following experiments we have verified, if AgTx2-L2-GFP, His6-AgTx2-L2-GFP and GFP-L1-AgTx2 can be used as fluorescent probes of Kv1.3 channels on the membrane of eukaryotic cells. Recently, we have designed a plasmid that encoded the fluorescently labeled human Kv1.3 channel (mKate2-hKv1.3-del) with enhanced presentation on the membrane of eukaryotic cells. […] Previously, the ...

Molecule | Displacement of AgTx2-L3-GFP from complexes with KcsA-Kv1.1 (in words) (KcsA-Kv1.1) | Kd (KcsA-Kv1.3 [1]) [nM] | Concentration range of competition with His6-GFP-L2-AgTx2 for KcsA-Kv1.3 (KcsA-Kv1.3 [1]) | Displacement of AgTx2-L3-GFP from complexes with KcsA-Kv1.3 (in words) (KcsA-Kv1.3 [2]) | Affinity to Kv1.1 (in words) (Kv1.1) | Affinity to Kv1.6 (in words) (Kv1.6) | Displacement of AgTx2-L3-GFP from complexes with KcsA-Kv1.6 (in words) (KcsA-Kv1.6) | Displacement of GFP-L2-AgTx2 from complexes with KcsA-Kv1.3 (in words) (KcsA-Kv1.3 [3]) | Kd (KcsA-Kv1.3 [3]) [nM] | Concentration range of competition with GFP-L2-AgTx2 for KcsA-Kv1.3 (KcsA-Kv1.3 [3]) | Displacement of GFP-L2-AgTx2 from mKate2-hKv1.3-del at the cell membrane (in words) (mKate2-hKv1.3-del [4]) | Affinity to Kv1.3 (in words) (Kv1.3) | Selectivity for Kv1.3 over Kv1.1 and Kv1.6 channels (Kv1.3) | Affinity to Kv1.2 (in words) (Kv1.2) | Affinity to Kv1.3 channels (in words) (Kv1.3) | Interaction with Kv1.3 channel (in words) (Kv1.3; known pharmacology, no reference given) | Pore block of KCa2.3 channel (in words) (KCa2.3) | Binding to mKate2-hKv1.3-del in eukaryotic cells (in words) (mKate2-hKv1.3-del [5])
CC[C@H](C)[C@@H]1NC(=O)[C@@H]2CSSC[C@@H]3NC(=O)[C@H](CCCCN)NC(=O)[C@H](CCCNC(=N)N)NC(=O)[C@H](CC(N)=O)NC(=O)[C@H](CCSC)NC(=O)[C@H](CSSC[C@H](NC(=O)[C@H](CO)NC(=O)[C@@H](NC(=O)[C@H](CC(N)=O)NC(=O)[C@@H](NC(=O)[C@@H]4CCCN4C(=O)[C@@H](NC(=O)CN)C(C)C)[C@@H](C)CC)C(C)C)C(=O)N[C@@H]([C@@H](C)O)C(=O)NCC(=O)N[C@@H](CO)C(=O)N4CCC[C@H]4C(=O)N[C@@H](CCC(N)=O)C(=O)N2)NC(=O)[C@H](CCCCN)NC(=O)CNC(=O)[C@H](Cc2ccccc2)NC(=O)[C@H](CCCNC(=N)N)NC(=O)[C@H](CCSC)NC(=O)CNC(=O)[C@H](C)NC(=O)[C@H](CC(=O)O)NC(=O)[C@H](CCCCN)NC(=O)[C@H](CSSC[C@@H](C(=O)N[C@H](C(=O)N2CCC[C@H]2C(=O)N[C@@H](CCCCN)C(=O)O)[C@@H](C)O)NC(=O)[C@H](Cc2c[nH]cn2)NC3=O)NC(=O)[C@@H]2CCCN2C(=O)[C@H](CCCCN)NC1=O [AgTx2, agitoxin 2] | readily displaced | 0.07 ± 0.004 | nanomolar concentration range | readily displaced | sub-nanomolar affinity | sub-nanomolar affinity | readily displaced | low nanomolar | 0.23 ± 0.05 | nanomolar concentration range | displaced totally | sub-nanomolar affinity | ca. tenfold | nanomolar affinity |  |  |  | 
CC[C@H](C)[C@H](NC(=O)[C@H](CCC(=O)O)NC(=O)[C@@H](NC(=O)CN)C(C)C)C(=O)N[C@@H](CC(N)=O)C(=O)N[C@H](C(=O)N[C@@H](CCCCN)C(=O)N[C@H]1CSSC[C@@H]2NC(=O)[C@H](CCCCN)NC(=O)CNC(=O)[C@H](Cc3ccccc3)NC(=O)[C@H](CCCNC(=N)N)NC(=O)[C@H](CCSC)NC(=O)CNC(=O)[C@H](C)NC(=O)[C@H](CC(=O)O)NC(=O)[C@H](CCCCN)NC(=O)[C@@H]3CSSC[C@@H](C(=O)N[C@H](C(=O)N4CCC[C@H]4C(=O)N[C@@H](CCCCN)C(=O)O)[C@@H](C)O)NC(=O)[C@H](Cc4c[nH]cn4)NC(=O)[C@H](CSSC[C@H](NC(=O)[C@H](CCC(N)=O)NC(=O)[C@@H]4CCCN4C(=O)[C@H](CO)NC(=O)CNC(=O)[C@H](CO)NC1=O)C(=O)N[C@@H](CC(C)C)C(=O)N[C@@H](CCCCN)C(=O)N1CCC[C@H]1C(=O)N3)NC(=O)[C@H](CCCCN)NC(=O)[C@H](CCCNC(=N)N)NC(=O)[C@H](CC(N)=O)NC(=O)[C@H](CCSC)NC2=O)C(C)C [KTx1, kaliotoxin 1] | readily displaced | 0.071 ± 0.007 | nanomolar concentration range | readily displaced |  |  | readily displaced | low nanomolar | 0.1 ± 0.04 | nanomolar concentration range |  |  |  |  |  |  |  | 
Hetlaxin [HeTx] |  | 45 | higher concentrations |  |  |  |  | low micromolar concentrations | 39 | higher concentrations |  |  |  |  | moderate-affinity ligand |  |  | 
Scillatoxin [ScTx] | did not compete |  |  | did not compete |  |  | did not compete | did not affect GFP-L2-AgTx2 binding to KcsA-Kv1.3 |  |  |  |  |  |  |  | no ability to interact with Kv1.3 channel | pore blocker of KCa2.3 channel | 
hongotoxin 1 |  |  |  |  |  |  |  |  |  |  |  |  |  |  |  |  |  | bind specifically
